Patent publication US20140288040A1, “SUBSTITUTED BENZYLAMINE COMPOUNDS, THEIR USE IN MEDICINE, AND IN PARTICULAR THE TREATMENT OF HEPATITIS C VIRUS (HCV) INFECTION” (ASTEX THERAPEUTICS LIMITED, priority 2011, published 2014)
Structures can show the parent of a compound that is named as a salt. Where two headings read alike, the source gives them in different places.

Columns and labels:
[1] = target: T1, HCV NS3 protease (full length NS34a) (Hepatitis C virus genotype 1b, UniProt P26663); assay: HCV NS3 protease assay (FRET, full length NS34a); format: biochemical
T1 construct: The protease activity of the full length NS34a was measured using a FRET-based assay; made in house
T1 sequence (P26663 1658-1711): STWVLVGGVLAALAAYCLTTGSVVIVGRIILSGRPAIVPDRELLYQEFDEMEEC
T1 sequence (P26663 1027-1657): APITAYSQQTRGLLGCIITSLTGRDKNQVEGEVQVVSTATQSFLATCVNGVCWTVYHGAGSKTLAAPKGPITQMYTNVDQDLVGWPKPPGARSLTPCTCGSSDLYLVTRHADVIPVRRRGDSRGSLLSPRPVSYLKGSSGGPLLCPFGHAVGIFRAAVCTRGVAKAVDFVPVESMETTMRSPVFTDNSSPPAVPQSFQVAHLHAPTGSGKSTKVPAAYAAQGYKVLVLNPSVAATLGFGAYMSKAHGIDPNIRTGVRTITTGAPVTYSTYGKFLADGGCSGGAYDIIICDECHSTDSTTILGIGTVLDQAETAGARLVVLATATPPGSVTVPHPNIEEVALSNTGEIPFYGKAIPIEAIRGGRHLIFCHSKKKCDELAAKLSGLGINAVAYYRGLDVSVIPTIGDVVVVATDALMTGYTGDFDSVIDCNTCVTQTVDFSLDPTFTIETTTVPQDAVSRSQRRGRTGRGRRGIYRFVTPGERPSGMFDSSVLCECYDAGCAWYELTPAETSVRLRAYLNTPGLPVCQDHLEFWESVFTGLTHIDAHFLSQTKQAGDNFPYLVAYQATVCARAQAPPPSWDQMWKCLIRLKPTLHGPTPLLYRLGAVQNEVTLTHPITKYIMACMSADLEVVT
Outline: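 Full-length NS34a incubated with compound and an NS4AB cleavage-site FRET peptide (QXL520 quencher, 5-FAMsp fluorophore) in 50 mM Tris pH8, 20 mM DTT, 1% CHAPS, 10% glycerol, 5% DMSO. Fluorescence followed for 30 minutes at room temperature; IC50 from initial rates of replicate progress curves.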

[2] = tested on: HCV subgenomic replicon in Huh-7 cells; assay: Replicon assay, EC50 luciferase readout; format: cell-based, hepatitis C virus (HCV); settings: Hepatitis C virus, Huh-7, 72 h, Huh-7 replicon cells, 72 h; single value, or second value of a pair x:y; read-out: Activity EC50 (μM) (EC50 luciferase readout)
Method: The activities of compounds of the invention against HCV in a cellular environment were analysed using a replicon assay as described below.
Thus, Huh-7 cells persistently infected with an HCV-RNA construct (Bartenschlager, R. Hepatitis C replicons: potential role for drug development. Nature Rev. Drug Discov. 1, 911-916 (2002)) comprising: 5′ and 3′ non-translated regions (NTR); the non-structural genes NS3 to NS5b; as well as the G418 drug resistance gene, neomycin, (for selection of cells carrying HCV replicon RNA) fused to the firefly Luciferase reporter gene (pFK13889luc-ubi-neoNS3-3′ET), were used to determine the cell based antiviral activity of compounds using luciferase activity as an indirect readout of HCV RNA load. In this assay […] huh-7 cells persistently infected with the HCV subgenomic replicon construct above were platedwell in a 96 well tissue culture plate. The cells were allowed to attach overnight in DMEM medium supplemented with 10% FBS 1% NEAA, and 250 μgml gentamicin. The following day the medium was replaced with 200 μlwell of fresh medium as described above lacking gentamicin. […] Plates were then incubated at 37° C. in an atmosphere of 5% CO2 and air for 72 h. […] The plate was then read at 535 nm (excitation) and 590 nm (emission) on a SpectraMax Gemini reader (Molecular Devices) to determine the number of viable cells by measuring the conversion of rezasurin (Alamar blue) to resorufin in response to mitochondrial activity. In order to determine the antiviral effect of these compounds EC50 values were determined by measuring the luciferase activity of the cells. Alamar blue solution was removed from the wells and replaced with 100 μlwell of medium along with 100 μlwell of Bright-Glo reagent and incubated at room temperature for 5 minutes before transferring 100 μlwell to a white bottom 96 well plate to read in a luminometer as described in the Bright-Glo Luciferase Assay System protocol (promega).

[3] = protease activity of full length NS34a, FRET peptide substrate, read-out: Activity IC50
[4] = IC50 values of 10-150 μM against the protease activity of the full length NS34a, or at least 40% inhibition of protease activity at a concentration of 100 μM

| SMILES | IC50 [1, 3] [µM] | EC50 [2] [µM] | IC50 [1, 4] [µM] |
| --- | --- | --- | --- |
| CC(C)NCC(N)c1ccc(F)c(Oc2ccccc2)c1F (stereo not shown) [Example 19, 1-(2,4-Difluoro-3-phenoxy-phenyl)-N*2*-isopropyl-ethane-1,2-diamine. dihydrochloride] | 9.8 | 10 |  |
| CCC(NCc1cc[nH]n1)c1ccc(F)c(Oc2ccccc2)c1F (stereo not shown) [Example 21] |  | > 30 | 10 to 150 |
| CCC(NCC1CC1)c1ccc(F)c(Oc2ccccc2)c1F (stereo not shown) [Example 22] | 3.2 | 6.6 |  |
| CCC(NCc1[nH]cnc1C)c1ccc(F)c(Oc2ccccc2)c1F (stereo not shown) [Example 24] |  | 18 | 10 to 150 |
| CCC(NCCC1CCCNC1)c1ccc(F)c(Oc2ccccc2)c1F (stereo not shown) [Example 27] | 1 | 0.26 |  |
| CCC(NCC1CCNCC1)c1ccc(F)c(Oc2ccccc2)c1F (stereo not shown) [Example 29] | 4.4 | 0.47 |  |
| CCC(NC(C)CO)c1ccc(F)c(Oc2ccccc2)c1F (stereo not shown) [Example 32] | 0.88 | 8 |  |
| CCC(NC(C)C)c1ccc(F)c(Oc2ccccc2)c1F (stereo not shown) [Example 34] | 4 | 1.2 |  |
| CCC(NC1CCC1)c1ccc(F)c(Oc2ccccc2)c1F (stereo not shown) [Example 44] | 4.7 | 9.9 |  |
| CCC(NCCO)c1ccc(F)c(Oc2ccccc2)c1F (stereo not shown) [Example 45, 2-[1-(2,4-Difluoro-3-phenoxy-phenyl)-propylamino]-ethanol. hydrochloride] | 1.7 | 9.1 |  |
| CCC(NC(C)CC(=O)NC)c1ccc(F)c(Oc2ccccc2)c1F (stereo not shown) [Example 49] | 3.2 | > 30 |  |
| NC(C1=NCCN1)c1ccc(F)c(Oc2ccccc2)c1F (stereo not shown) [Example 50, C-(2,4-Difluoro-3-phenoxy-phenyl)-C-(4,5-dihydro-1H-imidazol-2-yl)-methylamine.dihydrobromide] |  | 23 | 10 to 150 |
| CC[C@H](N)c1ccc(F)c(Oc2ccccc2)c1F [Example 52] | 1.8 | 9.4 |  |
| CCC(NCCCO)c1ccc(F)c(Oc2ccccc2)c1F (stereo not shown) [Example 56, 3-[1-(2,4-Difluoro-3-phenoxy-phenyl)-propylamino]-propan-1-ol.hydrochloride] | 1.1 | 11 |  |
| CC[C@@H](N[C@@H](C)CO)c1ccc(F)c(Oc2ccccc2)c1F [Example 57] |  | 29 | 10 to 150 |
| CC[C@@H](N[C@H](C)CO)c1ccc(F)c(Oc2ccccc2)c1F [Example 58] | 1 | 27 |  |
| N[C@H](c1ccc(F)c(Oc2ccccc2)c1F)[C@@H]1CCCNC1 [Example 59B, C-(2,4-Difluoro-3-phenoxy-phenyl)-C-piperidin-3-yl-methylamine. dihydrochloride] | 2.1 | 3 |  |
| N[C@H](c1ccc(F)c(Oc2ccccc2)c1F)[C@H]1CCCNC1 [Example 60, C-(2,4-Difluoro-3-phenoxy-phenyl)-C-piperidin-3-yl-methylamine.dihydrochloride] |  | 3 | 10 to 150 |
| CC[C@H](N[C@@H](C)CO)c1ccc(F)c(Oc2ccccc2)c1F [Example 64] | 0.43 | 18 |  |
| CC[C@H](N[C@H](C)CO)c1ccc(F)c(Oc2ccccc2)c1F [Example 65] | 2.1 | 12 |  |
| CCC(NC(C)CC(N)=O)c1ccc(F)c(Oc2ccccc2)c1F (stereo not shown) [Example 66] | 0.75 | > 30 |  |
| CCC(NC(C)c1c[nH]cn1)c1ccc(F)c(Oc2ccccc2)c1F (stereo not shown) [Example 67] | 3.4 | > 30 |  |
| CC[C@H](N[C@@H](C)CC(N)=O)c1ccc(F)c(Oc2ccccc2)c1F [Example 70] | 0.73 | 27 |  |
| CCC(NCCC(N)=O)c1ccc(F)c(Oc2ccccc2)c1F (stereo not shown) [Example 71] | 0.95 | > 30 |  |

| SMILES | IC50 [1, 3] [µM] | EC50 [2] [µM] | IC50 [1, 4] [µM] |
| --- | --- | --- | --- |
| NC(CC1CCNCC1)c1ccc(F)c(Oc2ccccc2)c1F (stereo not shown) [Example 72B, 1-(2,4-Difluoro-3-phenoxy-phenyl)-2-piperidin-4-yl-ethylamine. dihydrochloride] | 0.7 | 0.26 |  |
| NC(c1ccc(=O)[nH]c1)c1ccc(F)c(Oc2ccccc2)c1F (stereo not shown) [Example 73, 5-[Amino-(2,4-difluoro-3-phenoxy-phenyl)-methyl]-1H-pyridin-2-one] |  | > 30 | 10 to 150 |
| N[C@@H](c1ccc(F)c(Oc2ccccc2)c1F)[C@H]1CCC(=O)NC1 [Example 74A] |  | > 30 | 10 to 150 |
| CC[C@H](N)c1ccc(Cl)c(Oc2ccccc2)c1F [Example 77] | 0.59 | 12 |  |
| CC[C@@H](N)c1ccc(Cl)c(Oc2ccccc2)c1F [Example 78] | 1.2 | 9.6 |  |
| CC[C@H](N[C@@H](C)CC(N)=O)c1ccc(Cl)c(Oc2ccccc2)c1F [Example 79, (S)-3-[(S)-1-(4-Chloro-2-fluoro-3-phenoxy-phenyl)-propylamino]-butyramide.hydrochloride] | 0.31 | > 10 |  |
| CC[C@H](N[C@H](C)CC(N)=O)c1ccc(Cl)c(Oc2ccccc2)c1F [Example 80, (R)-3-[(S)-1-(4-Chloro-2-fluoro-3-phenoxy-phenyl)-propylamino]-butyramide.hydrochloride] |  | > 10 | 10 to 150 |
| CC[C@H](NC(C)CO)c1ccc(Cl)c(Oc2ccccc2)c1F (stereo partly shown) [Example 81] | 0.39 | 11 |  |
| N[C@H](CC1CCNCC1)c1ccc(F)c(Oc2ccccc2)c1F [Example 82] | 1.9 | 0.79 |  |
| C[C@@H](CC(N)=O)N[C@H](CC1CCNCC1)c1ccc(F)c(Oc2ccccc2)c1F [Example 84] | 0.45 | 18 |  |
| C[C@H](CC(N)=O)N[C@H](CC1CCNCC1)c1ccc(F)c(Oc2ccccc2)c1F [Example 85] |  | 18 | 10 to 150 |
| OCCN[C@H](CC1CCNCC1)c1ccc(F)c(Oc2ccccc2)c1F [Example 87B, 2-[(R)-1-(2,4-Difluoro-3-phenoxy-phenyl)-2-piperidin-4-yl-ethylamino]-ethanol] |  | 3.9 | 10 to 150 |
| C[C@@H](CO)N[C@H](CC1CCNCC1)c1ccc(F)c(Oc2ccccc2)c1F [Example 89] | 3.9 | 1.8 |  |
| C[C@H](CO)N[C@H](CC1CCNCC1)c1ccc(F)c(Oc2ccccc2)c1F [Example 90] |  | 0.36 | 10 to 150 |
| CC[C@H](NCCC(=O)NCC#N)c1ccc(F)c(Oc2ccccc2)c1F [Example 91, N-Cyanomethyl-3-[(S)-1-(2,4-difluoro-3-phenoxy-phenyl)-propylamino]-propionamide.hydrochloride] | 2.4 | > 10 |  |
| CC[C@H](NCCC(=O)NCCO)c1ccc(F)c(Oc2ccccc2)c1F [Example 92, 3-[(S)-1-(2,4-Difluoro-3-phenoxy-phenyl)-propylamino]-N-(2-hydroxy-ethyl)-propionamide.hydrochloride] | 0.91 | > 30 |  |
| N[C@@H](CC1CCNCC1)c1ccc(F)c(Oc2ccccc2)c1F [Example 93] | 0.79 | 1.8 |  |
| C[C@H](CO)N[C@@H](CC1CCNCC1)c1ccc(F)c(Oc2ccccc2)c1F [Example 95B, (R)-2-[(S)-1-(2,4-Difluoro-3-phenoxy-phenyl)-2-piperidin-4-yl-ethylamino]-propan-1-ol.dihydrochloride] | 0.41 | 0.16 |  |
| C[C@@H](CO)N[C@@H](CC1CCNCC1)c1ccc(F)c(Oc2ccccc2)c1F [Example 96] | 6.7 | 0.24 |  |
| CC[C@@H](NCCC(N)=O)c1ccc(Cl)c(Oc2ccccc2)c1F [Example 97, 3-[(R)-1-(4-Chloro-2-fluoro-3-phenoxy-phenyl)-propylamino]-propionamide.hydrochloride] | 0.84 | > 10 |  |
| C[C@@H](CC(N)=O)N[C@@H](CC1CCNCC1)c1ccc(F)c(Oc2ccccc2)c1F [Example 98] | 1.6 | > 10 |  |
| CC[C@H](NCCO)c1ccc(F)c(Oc2ccccc2)c1F [Example 100, 2-[(S)-1-(2,4-Difluoro-3-phenoxy-phenyl)-propylamino]-ethanol.trifluoroacetate] | 1.1 | > 18 |  |
| OCCN[C@@H](CC1CCNCC1)c1ccc(F)c(Oc2ccccc2)c1F [Example 101] | 1.3 | 0.23 |  |
